Data on 20 compounds can be found in patent US5070139A, “2,4-disubstituted 1,3-dioxolanes” (J. Uriach & Cia. S.A., priority 1987, dated 1991).

The subject of assay [1] is hypotension induced by PAF. Kind of assay: Inhibition of the hypotensive effect induced by PAF in normotense rats (Test 2). Type of assay: in vivo, Male Sprague Dawley rats. The conditions noted are these: i.v., 3 min before PAF (0.5 mg/Kg, i.v.), anesthetized rats. The procedure: Test 2--Inhibition of the Hypotensive Effect Induced by PAF in normotense Rats.
(§1) Male Sprague Dawley rats, of 180-220 g of weight, anesthetized with sodium pentobarbital (50 mg/Kg, i.p. 1 mL/100 g) have been used. In order to measure the average arterial pressure, a polyethylene catheter is introduced into the carotide artery. The arterial pressure is recorded with the help of a transducer connected with a R611 Beckman polygraph. The tested compounds are administrated through the femoral vein 3 min. Before the injection of PAF (0.5 mg/Kg, i.v.).

Assay [2] deals with platelet aggregation induced by PAF in rabbit platelets. Kind of assay: Inhibition of platelet aggregation induced by PAF (Test 1). The class given is cell-based, male New Zealand albino rabbits. The conditions noted are these: concentration needed to inhibit platelet aggregation by 50%, PAF 16 nM final, rabbit platelet rich plasma. The procedure:
Test 1: Inhibition of Platelet Aggregation Induced by PAF.
The blood is obtained by cardiac puncture of male New Zealand albino rabbits (between 2 and 2.5 Kg of weight) and coagulation is prevented by adding 1 part of 3.16% sodium citrate dihydrate in 9 parts of blood. The platelet rich plasma (PRP) is prepared by blood centrifugation at 250 xg for 10 min. at 4° C. and it is diluted with platelet poor plasma (PPP) obtained by additional centrifugation at […] for 10 min. The amount of platelets is adjusted to […]. The platelet aggregation induced by PAF (C18, prepared in our laboratory) (16 nM, final) is determined by the Born nephelometric technique (J. Physiol., 1962, 162, 67) using a aggregometer Chronolog 500. The activities of the inhibitors are expressed as IC50, that is to say the concentration of the drug needed to inhibit the platelet aggregation in a 50%.

For assay [3], the system named is hypotension induced by PAF. Kind of assay: Reversion of the hypotensive effect induced by PAF in normotense rats (Test 3). The class given is in vivo, Male Sprague Dawley rats. The conditions noted are these: Rattus norvegicus, iv, 1 min; i.v., 1 min after the injection of PAF; read-out: ID50, dose required to reduce in a 50% the time of recovery of the basal blood pressure. The procedure:
as §1
Test 3--Reversion of the Hypotensive Effect Induced by PAF in Normotense Rats
The experimental design is similar to that of test 2, except in that the compound to be tested is given by intravenous injection 1 min. After the injection of PAF. In the controls the blood pressure recovers 80% of the basal level 6.2 min. after the injection of PAF. The effect of the tested compounds is expressed as the dose required to reduce in a 50% the time of recovery of the basal blood pressure (ID50).

[4] abbreviates: Oryctolagus cuniculus, Platelet.

Structures can show the parent of a compound that is named as a salt.

As usually defined, the IC50 is the concentration that inhibits the measured activity by half.

For the compound `CCCCCCCCCCCCCCCCCC1OCC(COCCCC[n+]2ccccc2)O1` (racemic) [Compound 1, (±)-cis, trans-1[4-[(2-heptadecyl-1,3-dioxolane-4-yl)methoxy]butyl]piridinium 4-methylbenzenesulphonate], the “% Inhibition of the hypotension induced by PAF” value (from here on “% Inhibition”) in assay [1] (compound 5 mg/Kg) was 24%. For the same compound, the midpoint of inhibition in assay [2] (setting [4]), the IC50, lay at 5.5 µM.
In turn, `CCCCCCCCCCCCCCCCCC1OCC(COCCCC[n+]2ccsc2)O1` (racemic) [Compound 2, (±)-cis, trans-3-[4-[(2-heptadecyl-1,3-dioxolane-4-yl)methoxy]butyl]thiazolium 4-methylbenzenesulfonate] had an IC50 in assay [2] (setting [4]) of 6 µM.
On to `CCCCCCCCCCCCCCCCCC1OCC(COCCCC[n+]2ccsc2)O1` (racemic) [Compound 5, (±)-cis, trans-3-[4-[(2-heptadecyl-1,3-dioxolane-4-yl)methoxy]butyl)thiazolium iodide], for which, in assay [2], the half-inhibitory concentration (IC50) came to 5 µM.
As for `CCCCCCCCCCCCCCCCCC1OCC(COCCCCCC[n+]2ccccc2)O1` (racemic) [Compound 6, (±)-cis, trans-1-[6-[(2-heptadecyl-1,3-dioxolane-4-yl)methoxy]hexyl]pyridinium 4-methylbenzenesulfonate], the “% Inhibition” value in assay [1] (compound 5 mg/Kg) is on record as 42%. Further, inhibition in assay [2] (setting [4]) was half-maximal at 3.3 µM (IC50).
In assay [2] (setting [4]), `CCCCCCCCCCCCCCCCCC1OCC(COCCCCCC[n+]2cscc2C)O1` (racemic) [Compound 7, (±)-cis, trans-3-[6-[(2-heptadecyl-1,3-dioxolane-4-yl)methoxy]hexyl]-4-methylthiazolium 4-methylbenzenesulfonate] registered an IC50 of 3.1 µM.
On to `CCCCCCCCCCCCCCCCCC1OCC(COCCCCCC[n+]2ccsc2)O1` (racemic) [Compound 8, (±)-cis, trans-3-[6-[(2-heptadecyl-1,3-dioxolane-4-yl)methoxy]hexyl]thiazolium 4-methylbenzenesulfonate], for which, in assay [3], the ED50 stood at 0.3 mg/kg. The “% Inhibition” value in assay [1] (compound 1.25 mg/Kg) stood at 46%; in assay [1] (compound 2.5 mg/Kg), 75%; in assay [1] (compound 5 mg/Kg), 88%. Moreover, in assay [2] (setting [4]), the concentration for half-maximal inhibition (IC50) was found to be 1.4 µM.
`CCCCCCCCCCCCCCCCCC1OCC(COCCCCCC[N+]2(C)CCOCC2)O1` (racemic) [Compound 9, (±)-cis, trans-4-[6-[(2-heptadecyl-1,3-dioxolane-4-yl)methoxy]hexyl]-4-methylmorpholinium 4-methylbenzenesulfonate] gave an IC50 in assay [2] (setting [4]) of 18 µM.
Same read-out and setting: the result for `CCCCCCCCCCCCCCCCCC1OCC(COCCCCCC[N+](C)(C)C)O1` (racemic) [Compound 10, (±)-cis, trans-6-[(2-heptadecyl-1,3-dioxolane-4-yl)methoxy]-N,N,N-trimethyl-1-hexanaminium 4-methylbenzenesulfonate] reads 5.5 µM.
Consider `CCCCCCCCCCCCCCCCCC1OCC(COCCCCCC[n+]2cccc3ccccc32)O1` (racemic) [Compound 11, (±)-cis, trans-1-[6-(2-heptadecyl-1,3-dioxolane-4-yl)methoxy]hexyl]quinolinium 4-methylbenzenesulfonate], for which, in assay [2] (setting [4]), the IC50 came to 3.9 µM.
`CCCCCCCCCCCCCCCCCC1OCC(COCCCCCC[n+]2csc3ccccc32)O1` (racemic) [Compound 12, (±)-cis, trans-3-[6-[(2-heptadecyl-1,3-dioxolane-4-yl)methoxy]hexyl]benzothiazolium4-methylbenzenesulfonate] registered a 50% inhibitory concentration (IC50) in assay [2] (setting [4]) of 16 µM.
As for `CCCCCCCCCCCCCCCCCC1OCC(COCCCCCCCC[n+]2ccccc2)O1` (racemic) [Compound 20, (±)-cis, trans-1-[8-[(2-heptadecyl-1,3-dioxolane-4-yl)methoxy]octyl]pyridinium 4-methylbenzenesulfonate], it took 14 µM to reach half-maximal inhibition in assay [2] (setting [4]) (IC50). The IC50 values of the last two compounds are within 1.5-fold of each other.
Same read-out and setting: the value for `CCCCCCCCCCCCCCCCCC1OCC(COCCCCCCCC[n+]2ccsc2)O1` (racemic) [Compound 22, (±)-cis, trans-3-[8-[(2-heptadecyl-1,3-dioxolane-4-yl)methoxy]octyl]thiazolium 4-methylbenzenesulfonate] was 5.1 µM.
In the case of `CCCCCCCCCCCCCCCCCC1OCC(COC(=O)CCCCC[n+]2ccccc2)O1` (racemic) [Compound 24, (±)-cis, trans-1-[6-[(2-heptadecyl-1,3-dioxolane-4-yl)methoxy]-6-oxohexyl]pyridinium 4-methylbenzenesulfonate], the “% Inhibition” value in assay [1] (compound 2.5 mg/Kg) is listed as 58%; in assay [1] (compound 5 mg/Kg) it was 72%. In assay [2] (setting [4]), this compound returned an IC50 of 2.6 µM.
`CCCCCCCCCCCCCCCCCC1OCC(COC(=O)CCCCC[n+]2cscc2C)O1` (racemic) [Compound 26, (±)-cis, trans-3-[6-[(2-heptadecyl-1,3-dioxolane-4-yl)methoxy]-6-oxohexyl]-4-methylthiazolium 4-methylbenzenesulfonate] displayed an IC50 in assay [2] (setting [4]) of 2.5 µM.
For the compound `CCCCCCCCCCCCCCCCCC1OCC(COC(=O)CCCCC[n+]2ccsc2)O1` (racemic) [Compound 27, (±)-cis, trans-3-[6-[(2-heptadecyl-1,3-dioxolane-4-yl)methoxy]-6-oxohexyl]thiazolium 4-methylbenzenesulfonate], the ED50 in assay [3] was 0.16 mg/kg. Further, the results for the “% Inhibition” value in assay [1] (compound 0.63 mg/Kg), in assay [1] (compound 1.25 mg/Kg) and in assay [1] (compound 5 mg/Kg) were 28%, 75% and 100%, respectively. Moreover, in assay [2] (setting [4]), the 50% inhibitory concentration (IC50) was 1.3 µM.
Regarding `CCCCCCCCCCCCCCCCCC1OCC(COC(=O)CCCCC[N+]2(C)CCOCC2)O1` (racemic) [Compound 30, (±)-cis, trans-4-[6-[(2-heptadecyl-1,3-dioxolane-4-yl)methoxy]-6-oxohexyl]-4-methylmorpholinium 4-methylbenzenesulfonate], inhibition in assay [2] (setting [4]) was half-maximal at 21 µM (IC50).
Compound `CCCCCCCCCCCCCCCCCC1OCC(COC(=O)CCCCC[N+](C)(C)C)O1` (racemic) [Compound 31, (±)-cis, trans-6-[(2-heptadecyl-1,3-dioxolane-4-yl)methoxy]-6-oxo-N,N,N-trimethyl-1-hexanaminium 4-methylbenzenesulfonate] showed a half-maximal inhibitory concentration (IC50) in assay [2] (setting [4]) of 7.8 µM.
On to `CCCCCCCCCCCCCCCCCC1OCC(COC(=O)CCCCC[n+]2cccc3ccccc32)O1` (racemic) [Compound 32, (±)-cis, trans-1-[6-[(2-heptadecyl-1,3-dioxolane-4-yl)methoxy]-6-oxohexyl]quinolinium 4-methylbenzenesulfonate], for which, in assay [1] (compound 5 mg/Kg), the “% Inhibition” value was 80%. The same compound showed an IC50 in assay [2] (setting [4]) of 2.5 µM.
As to `CCCCCCCCCCCCCCCCCC1OCC(COP(=O)([O-])OCC[N+](C)(C)C)O1` (racemic) [Compound 47, (±)-cis, trans-2-[[[(2-heptadecyl-1,3-dioxolane-4-yl)methoxy]hydroxyphosphinyl]oxy]-N,N,N-trimethylethanaminium hydroxide, inner salt], the half-inhibitory concentration (IC50) in assay [2] (setting [4]) stood at 180 µM.
As for `CCCCCCCCCCCCCCCCCC1OCC(COP(=O)([O-])OCC[n+]2ccccc2)O1` (racemic) [Compound 48, (±)-cis, trans-1-[2-[[[(2-heptadecyl-1,3-dioxolane-4yl)methoxy]hydroxyphosphinyl]oxy]ethyl]pyridinium hydroxide, inner salt], the concentration for half-maximal inhibition (IC50) in assay [2] (setting [4]) is 180 µM.
